# Test results: ChEMBL document CHEMBL4837253, “Structure-Based Discovery of Proline-Derived Arginase Inhibitors with Improved Oral Bioavailability for Immuno-Oncology” (ACS Med Chem Lett, 2021)
# The source made the active and inactive calls. No cut-off for these calls is given here.
# Tests used:
# [1] = Oral bioavailability in C57BL/6 mouse at 10 mg/kg; type: ADME, organism-based; conditions: in vivo
# [2] = Oral bioavailability in Wister Han rat at 10 mg/kg; type: ADME, organism-based; conditions: in vivo
# Arginase-1 [3] = target: T1, Arginase-1 (Homo sapiens, UniProt P05089); assay: Inhibition of human recombinant ARG1 expressed in Escherichia coli using thioarginine as a substrate preincubated for 30 mins followed by substrate addition and incubated for 60 mins by fluorescence based arginine thio ornithine generating assay
# T1 sequence (P05089 whole entry): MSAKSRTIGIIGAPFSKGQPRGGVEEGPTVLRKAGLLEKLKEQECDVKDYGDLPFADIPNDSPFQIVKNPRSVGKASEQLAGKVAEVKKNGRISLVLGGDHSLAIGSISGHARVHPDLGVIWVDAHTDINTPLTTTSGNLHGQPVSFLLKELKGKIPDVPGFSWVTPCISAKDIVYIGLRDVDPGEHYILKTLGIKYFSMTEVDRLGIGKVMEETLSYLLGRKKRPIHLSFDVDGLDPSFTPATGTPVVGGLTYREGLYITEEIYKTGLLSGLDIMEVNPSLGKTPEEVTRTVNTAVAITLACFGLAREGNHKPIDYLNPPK
# Arginase-1 [4] = target: T1, Arginase-1; assay: Inhibition of human ARG1 in HEK293 cells by cell based assay
# [5] = Drug uptake in serum of EMT6 tumor bearing BALB/c mouse at 30 to 300 mg/kg, po administered twice daily measured after 2 days; type: ADME, organism-based; conditions: in vivo, 48 h, dose 30-300 mg/kg, time 2 day
# [6] = Drug uptake in tumor of EMT6 tumor bearing BALB/c mouse at 30 to 300 mg/kg, po administered twice daily measured after 2 days; type: ADME, organism-based, Neoplasm; conditions: in vivo, 48 h, dose 30-300 mg/kg, time 2 day
# EMT6 [7] = assay: In vivo inhibition of […] in EMT6 tumor bearing BALB/c mouse assessed as elevated arginine levels in serum measured after 2 days; type: functional, organism-based; conditions: time 2.0 day
# EMT6 [8] = assay: In vivo inhibition of […] in EMT6 tumor bearing BALB/c mouse assessed as elevated arginine levels in tumor measured after 2 days; type: functional, organism-based; conditions: time 2.0 day
# EMT6 [9] = assay: In vivo inhibition of […] in EMT6 tumor bearing BALB/c mouse assessed as elevated arginine levels in serum at 250 mg/kg, po administered twice daily measured after 14 days; type: functional, organism-based; conditions: time 14.0 day
# EMT6 [10] = assay: In vivo inhibition of […] in EMT6 tumor bearing BALB/c mouse assessed as elevated arginine levels in tumor at 250 mg/kg, po administered twice daily measured after 14 days; type: functional, organism-based; conditions: Neoplasm, time 14.0 day
# EMT6 [11] = assay: In vivo inhibition of […] in EMT6 tumor bearing BALB/c mouse assessed as elevated arginine levels in serum in the presence of mouse anti-PD-1 mAb at 250 mg/kg, po administered twice daily measured after 14 days; type: functional, organism-based; conditions: time 14.0 day
# EMT6 [12] = assay: In vivo inhibition of […] in EMT6 tumor bearing BALB/c mouse assessed as elevated arginine levels in tumor in the presence of mouse anti-PD-1 mAb at 250 mg/kg, po administered twice daily measured after 14 days; type: functional, organism-based; conditions: Neoplasm, time 14.0 day
# [13] = Toxicity in EMT6 tumor bearing BALB/c mouse assessed as change in body weight at 30 to 300 mg/kg, po administered twice daily measured up to 14 days; type: organism-based; conditions: in vivo, 336 h, dose 30-300 mg/kg, time <=14 day
# [14] = Stability in C57BL/6 mouse hepatocytes; type: ADME, cell-based, Hepatocyte
# [15] = Oral bioavailability in C57BL/6 mouse in the presence of compound 18 at 10 mg/kg; type: ADME, organism-based; conditions: in vivo
# [16] = Metabolic stability in C57BL/6 mouse hepatocytes assessed as hydrolysis product of (2S,3R,4R)-4-amino-3-(3-boronopropyl)pyrrolidine-2-carboxylic acid measured; type: ADME, cell-based, Hepatocyte
SMILES,bioavailability [1] [%],bioavailability [2] [%],IC50 (Arginase-1 [3]) [nM],EC50 (Arginase-1 [4]) [nM],also measured
O=C(O)[C@H]1NCCO[C@H]1CCCB(O)O,14,10,,,
O=C(O)[C@H]1NCC[C@@]1(CO)CCCB(O)O,34,39,19,11000,
O=C(O)C1CC(CCB(O)O)CN1 (racemic),,,8730,,
O=C(O)[C@H]1NCC[C@H]1CCCB(O)O,43,25,16,3400,Drug uptake [5]: Active; Drug uptake [6]: Active; Activity (EMT6 [7]): Dose-Dependent Effect; Activity (EMT6 [8]): Dose-Dependent Effect; inhibition (EMT6 [9]): Active; inhibition (EMT6 [10]): Active; inhibition (EMT6 [11]): Active; inhibition (EMT6 [12]): Active; Activity [13]: Non-Toxic
CN[C@H](C(=O)N[C@H]1CN[C@H](C(=O)O)[C@@H]1CCCB(O)O)C(C)C,4.6,,5,,
CO[C@H]1CN[C@H](C(=O)O)[C@@H]1CCCB(O)O,,,,28000,
CN(C)[C@H]1CN[C@H](C(=O)O)[C@@H]1CCCB(O)O,17,,66,,
O=C(O)[C@H]1NC[C@@H]1CCCB(O)O,50,,,,
O=C(O)[C@H]1NC[C@H](NCC(F)(F)F)[C@H]1CCCB(O)O,10,,,,
CC(C)[C@@H](N)C(=O)N[C@H]1CN[C@H](C(=O)O)[C@@H]1CCCB(O)O,,,34,,
O=C(O)[C@H]1N[C@H](CO)C[C@H]1CCCB(O)O,12,12,8,4200,
O=C(O)[C@@]1(CCN2CCCCC2)NCC[C@H]1CCCB(O)O,8.5,2.7,70,> 30000,
CC(C)(C)[C@H](N)C(=O)N[C@H]1CN[C@H](C(=O)O)[C@@H]1CCCB(O)O,34,,< 1,,
C[C@@H]1C[C@@H](CCCB(O)O)[C@@H](C(=O)O)N1,31,,7,2800,
NC[C@@]1(CCCB(O)O)CCN[C@@H]1C(=O)O,,,5,14000,
O=C(O)[C@H]1NC[C@H]1CCCB(O)O,42,,,,
C[C@@]1(CCCB(O)O)CCN[C@@H]1C(=O)O,19,9,33,6300,
N[C@H]1CN[C@H](C(=O)O)[C@@H]1CCCB(O)O,14,,3,20000,
CC(C)[C@H](N)C(=O)N[C@H]1CN[C@H](C(=O)O)[C@@H]1CCCB(O)O,13,,2,,Stabilty [14]: Unstable
O=C(O)[C@H]1NCC[C@@H]1CCCB(O)O,44,34,,,
C[C@H](N)C(=O)N[C@H]1CN[C@H](C(=O)O)[C@@H]1CCCB(O)O,3,,11,,Stabilty [14]: Unstable; bioavailability [15]: 27%; Drug metabolism [16]: Metabolite_Detected
NC[C@@H]1C[C@@H](CCCB(O)O)[C@@H](C(=O)O)N1,44,51,30,16000,
CN[C@H]1CN[C@H](C(=O)O)[C@@H]1CCCB(O)O,11,,,,
O=C(O)[C@H]1NC[C@H](O)[C@H]1CCCB(O)O,41,12,4,6900,
